Source: patent US20260191838A1, “COMBINATIONS COMPRISING A MENIN-MLL INHIBITOR AND A BCL-2 INHIBITOR” (JANSSEN PHARMACEUTICA NV, priority 2022, published 2026)

Legend:
[1] = system: MOLM-13 tumors in NSG mice; experiment: Efficacy (survival) in disseminated MOLM-13 (KMT2A-rearranged) IV model in NSG mice; format: in vivo
Protocol: 4) Efficacy of Menin-KMT2A Inhibitor in Combination with Venetoclax, and Optionally, Azacitidine, in MOLM-13 (KMT2A-Rearranged) IV Model in NSG Mice
Compound 51 was formulated in purified pyrogen-free deionized water, pH 4.0 and prepared to reach a total volume of 8 mL/kg. Doses were adjusted by individual body weight each day. Working stocks of Compound 51 were prepared once per week for each study and stored at 25° C.
Female NSG (NOD.Cg-Prkdc^scid Il2rg^tm1Wj1/SzJ) mice were used when they were approximately 6 to 8 weeks of age and weighed approximately 25 g. All animals could acclimate and recover from any shipping-related stress for a minimum of 7 days prior to experimental use. Autoclaved water and irradiated food were provided ad libitum, and the animals were maintained on a 12 hour light and dark cycle. Cages, bedding, and water bottles were autoclaved before use and changed weekly. The tissue culture and cell injection reagents are summarized below in Table 5.
Tumor Model and Cell Culture Method
Human AML MOLM-13 cells were cultured at 37° C., 5% CO2 in the indicated complete culture media (RPMI 1640+10% HI-FBS+2 mM L-glutamine+50 μg/ml Gentamycin). Cells were harvested while in logarithmic growth and resuspended in cold (4° C.) Roswell Park Memorial Institute (RPMI) 1640 in serum-free medium.
For the disseminated MOLM-13 model, each mouse received 1×10^5 cells via IV injection in a total volume of 0.2 mL using a 26-gauge needle.
Day 0 is the day of tumor cell implantation and study initiation.
Mice bearing IV MOLM-13 xenograft tumors were randomly assigned to treatment groups 5 days post-tumor cell engraftment.
Animals were monitored daily for clinical signs related to either compound toxicity or tumor burden (i.e., hind limb paralysis, lethargy, etc.).
For survival assessment, results were plotted as the percentage survival against days post tumor implant. Negative clinical signs and/or ≥20% body weight loss was used as a surrogate endpoint for death. Median survival was determined utilizing Kaplan-Meier survival analysis. The percent increased life span (ILS) was calculated as: ((median survival day of treated group−median survival day of control group)/median survival day of control group)×100. Animals failing to reach the surrogate endpoint due to adverse clinical signs or death unrelated to treatment were censored for the survival assessment. As defined by NCI criteria, ≅25% ILS is considered biologically significant. (Johnson J I et al. Br J Cancer. 2001. 84(10), 1424-1431).
Survival and body weight data were graphically represented utilizing Prism (Version 9). Statistical significance for body weights was evaluated as described above. Statistical significance was evaluated for Kaplan-Meier survival plots comparing therapeutic treatment group vs. appropriate vehicle-treated control using log-rank (Mantel-Cox) test in R software version 3.4.2. Differences between groups were considered significant when the p value was ≤0.05.
The disseminated MOLM-13 model described above was used to examine the efficacy of menin-KMT2A-inhibitor (formulated as described above) in combination with venetoclax (formulated in polyethylene glycol [PEG]-400/Phosal50/dimethyl sulfoxide [DMSO]), and optionally azacitidine (formulated in 0.9% saline). Treatment with compound(s) was initiated 5 days after cell injection. Compound 51 was given in the morning, and venetoclax or azacitidine was given in the afternoon, approximately 6-8 hr apart.

MOLM-13 cells = experiment: In vitro proliferation (Cell Titer Glo), Compound 51 with decitabine and venetoclax, MOLM-13; format: cell-based, human; design: key to maxR test call (additive / antagonism / synergy): no asterisk: absence of any asterisk indicates an additive effect; antagonism is indicated by “*”; synergy is indicated by “**”; Effect size (BIGL, HSA null model): scale not given here
Protocol: 3a) In Vitro Proliferation—Menin-MLL Inhibitor in Combination with a DNA Hypomethylating Agent (Decitabine) and a BCL2 Inhibitor (Venetoclax)
The effect of Compound 51 in combination with decitabine and venetoclax was determined in proliferation assays.
AML cell lines MOLM-13, OCI-AML3 and MV4-11 were purchased from DSMZ. MOLM-13 were grown in RPMI medium supplemented with 10% Fetal Bovine Serum (FBS) and 1% penicillin/streptomycin. MV4-11 cells were grown in IMDM medium supplemented with 10% FBS and 1% penicillin/streptomycin. OCI-AML3 cells were cultured in 80-90% alpha-MEM (without ribo- and deoxyribonucleosides)+10-20% FBS. All cell lines were cultured at 37° C. in 5% CO2 atmosphere.
AML cell lines (10×10^3 cells/well) were seeded in 96-well plates and grown for 6 days in serum (10%)-containing medium in the presence or absence of inhibitors at the indicated concentrations. Proliferation was analyzed by means of a Cell Titer Glo assay using the CellTiter 96 Aqueous One Solution Cell Proliferation Assay (Promega, Madison, WI, USA), according to the manufacturer's instructions. Data are mean with standard deviation from two to four independent experiments in technical triplicates.
R-based Biochemically Intuitive Generalized Loewe (BIGL) model implemented with a highest single agent (HSA) null model. Specifically, the BIGL methodology was applied to calculate drug-drug interactions (Van der Borght, K., Tourny, A., Bagdziunas, R. et al. BIGL: Biochemically Intuitive Generalized Loewe null model for prediction of the expected combined effect compatible with partial agonism and antagonism. Sci Rep 7, 17935 (2017); Thas, O., Tourny, A., Verbist, B., Hawinkel, S., Nazarov, M., Mutambanengwe, K., & Bijnens, L. Statistical detection of synergy: new methods and a comparative study. Pharmaceutical Statistics (2021)).
Synergy matrix results of the BIGL analysis of the cell line data with HSA as mean model calculated on the basis of the cellular metabolic activity using Cell Titer-Glo assay. Bootstrap confidence intervals are indicated. Effect sizes and their confidence intervals are shown. […] No significant average effect if zero is included in the interval.

[2] = Compound 51 0.05 μM, Decitabine 0.015 μM, Venetoclax 0.001 μM
[3] = Compound 51 0.05 μM, Decitabine 0.35 μM, Venetoclax 0.002 μM
[4] = Compound 51 0.1 μM, Decitabine 0.015 μM, Venetoclax 0.001 μM
[5] = Compound 51 0.1 μM, Decitabine 0.35 μM, Venetoclax 0.002 μM
[6] = Compound 51 1 μM, Decitabine 0.35 μM, Venetoclax 0.002 μM
[7] = Compound 51 10 μM, Decitabine 0.015 μM, Venetoclax 0.001 μM
[8] = Compound 51 10 μM, Decitabine 0.35 μM, Venetoclax 0.002 μM

`CC(=O)N1CCC(CN2CC[C@@H](Cc3cn(-c4ccc(F)cc4C(=O)N(C)C(C)C)c4cncc(C)c34)C2)CC1` [Compound 51] was tested, and the “lifespan, Compound 51 in combination with venetoclax compared to venetoclax alone” value ([1]; MOLM-13 tumor-bearing mice) was “statistically significant increased lifespan”, the “lifespan, Compound 51 in combination with venetoclax plus azacitidine compared to doublet venetoclax plus azacitidine” value ([1]; MOLM-13 tumor-bearing mice) was “statistically significant increased lifespan” and the “% ILS (increased life span)” value ([1]; NSG mice with established MOLM-13 tumors, 4 weeks treatment, azacitidine 2 mg/kg ip QD × 7, venetoclax 100 mg/kg po QD × 28, Compound 51 2 mg/kg po QD × 28 (Table 6)) was 5%. The “Effect size (BIGL, HSA null model)” value (MOLM-13 cells; Compound 51 0.001 μM, Decitabine 0.0015 μM, Venetoclax 0.0001 μM) was −0.04, the “Effect size (BIGL, HSA null model)” value (MOLM-13 cells; Compound 51 0.001 μM, Decitabine 0.015 μM, Venetoclax 0.001 μM) was −0.05 and the “Effect size (BIGL, HSA null model)” value (MOLM-13 cells; Compound 51 0.001 μM, Decitabine 0.35 μM, Venetoclax 0.002 μM) was 0.01. For the same compound, the “Effect size (BIGL, HSA null model)” value (MOLM-13 cells; Compound 51 0.001 μM, Decitabine 1.5 μM, Venetoclax 0.02 μM) was −0.04, the “Effect size (BIGL, HSA null model)” value (MOLM-13 cells; Compound 51 0.001 μM, Decitabine 3 μM, Venetoclax 0.2 μM) was −0.03 and the “Effect size (BIGL, HSA null model)” value (MOLM-13 cells; Compound 51 0.01 μM, Decitabine 0.0015 μM, Venetoclax 0.0001 μM) was −0.02. The “Effect size (BIGL, HSA null model)” value (MOLM-13 cells; Compound 51 0.01 μM, Decitabine 0.015 μM, Venetoclax 0.001 μM) was −0.17, the “Effect size (BIGL, HSA null model)” value (MOLM-13 cells; Compound 51 0.01 μM, Decitabine 0.35 μM, Venetoclax 0.002 μM) was −0.1 and the “Effect size (BIGL, HSA null model)” value (MOLM-13 cells; Compound 51 0.01 μM, Decitabine 1.5 μM, Venetoclax 0.02 μM) was −0.05. The “Effect size (BIGL, HSA null model)” value (MOLM-13 cells; Compound 51 0.01 μM, Decitabine 3 μM, Venetoclax 0.2 μM) was −0.03, the “Effect size (BIGL, HSA null model)” value (MOLM-13 cells; Compound 51 0.05 μM, Decitabine 0.0015 μM, Venetoclax 0.0001 μM) was −0.03 and the “Effect size (BIGL, HSA null model)” value (MOLM-13 cells; [2]) was −0.18. The “maxR test call (additive / antagonism / synergy)” value (MOLM-13 cells; [2]) was “**”, the “Effect size (BIGL, HSA null model)” value (MOLM-13 cells; [3]) was −0.25 and the “maxR test call (additive / antagonism / synergy)” value (MOLM-13 cells; [3]) was “**”. For the same compound, the “Effect size (BIGL, HSA null model)” value (MOLM-13 cells; Compound 51 0.05 μM, Decitabine 1.5 μM, Venetoclax 0.02 μM) was −0.05, the “Effect size (BIGL, HSA null model)” value (MOLM-13 cells; Compound 51 0.05 μM, Decitabine 3 μM, Venetoclax 0.2 μM) was −0.03 and the “Effect size (BIGL, HSA null model)” value (MOLM-13 cells; Compound 51 0.1 μM, Decitabine 0.0015 μM, Venetoclax 0.0001 μM) was 0.01. The “Effect size (BIGL, HSA null model)” value (MOLM-13 cells; [4]) was −0.16, the “maxR test call (additive / antagonism / synergy)” value (MOLM-13 cells; [4]) was “**” and the “Effect size (BIGL, HSA null model)” value (MOLM-13 cells; [5]) was −0.27. The “maxR test call (additive / antagonism / synergy)” value (MOLM-13 cells; [5]) was “**”, the “Effect size (BIGL, HSA null model)” value (MOLM-13 cells; Compound 51 0.1 μM, Decitabine 1.5 μM, Venetoclax 0.02 μM) was −0.05 and the “Effect size (BIGL, HSA null model)” value (MOLM-13 cells; Compound 51 0.1 μM, Decitabine 3 μM, Venetoclax 0.2 μM) was −0.03. The “Effect size (BIGL, HSA null model)” value (MOLM-13 cells; Compound 51 1 μM, Decitabine 0.0015 μM, Venetoclax 0.0001 μM) was 0.05, the “Effect size (BIGL, HSA null model)” value (MOLM-13 cells; Compound 51 1 μM, Decitabine 0.015 μM, Venetoclax 0.001 μM) was −0.12 and the “Effect size (BIGL, HSA null model)” value (MOLM-13 cells; [6]) was −0.28. The “maxR test call (additive / antagonism / synergy)” value (MOLM-13 cells; [6]) was “**”, the “Effect size (BIGL, HSA null model)” value (MOLM-13 cells; Compound 51 1 μM, Decitabine 1.5 μM, Venetoclax 0.02 μM) was −0.05 and the “Effect size (BIGL, HSA null model)” value (MOLM-13 cells; Compound 51 1 μM, Decitabine 3 μM, Venetoclax 0.2 μM) was −0.03. For the same compound, the “Effect size (BIGL, HSA null model)” value (MOLM-13 cells; Compound 51 10 μM, Decitabine 0.0015 μM, Venetoclax 0.0001 μM) was −0.05, the “Effect size (BIGL, HSA null model)” value (MOLM-13 cells; [7]) was −0.17 and the “maxR test call (additive / antagonism / synergy)” value (MOLM-13 cells; [7]) was “**”. For the same compound, the “Effect size (BIGL, HSA null model)” value (MOLM-13 cells; [8]) was −0.29, the “maxR test call (additive / antagonism / synergy)” value (MOLM-13 cells; [8]) was “**” and the “Effect size (BIGL, HSA null model)” value (MOLM-13 cells; Compound 51 10 μM, Decitabine 1.5 μM, Venetoclax 0.02 μM) was −0.05. The “Effect size (BIGL, HSA null model)” value (MOLM-13 cells; Compound 51 10 μM, Decitabine 3 μM, Venetoclax 0.2 μM) was −0.03 and the “combination effect on proliferation (in words)” value (MOLM-13 cells; pairwise matrix of decitabine and Compound 51 in the presence of Venetoclax, MOLM-13, 6-day CellTiter-Glo) was “synergistically cytotoxic”.
